In ChEMBL document CHEMBL5584308, “Total Synthesis and Anti-inflammatory Activity of Asperjinone and Asperimide C” (J Nat Prod, 2024) one finds Activity and IC50 data, which are given here for five molecules.

SMILES strings stand for the structures. Activity calls are given as the source filed them. The rule behind the calls is not given here.

What is called IC50 is the concentration that inhibits the measured activity by half.

For data set [1], the system named is RPTEC. In words: Cytotoxicity against human RPTEC cells assessed as reduction in cell viability at 26 uM incubated for 24 hrs in absence of LPS by MTT assay. It is filed as toxicity, cell-based. For orientation: Formazan colour is commonly taken as a measure of viable cells.
For data set [2], the system named is RPTEC. In words: Cytotoxicity against human RPTEC cells assessed as reduction in cell viability at 26 uM incubated for 24 hrs in presence of LPS by MTT assay. It is filed as toxicity, cell-based.
In data set [3] the test system is RPTEC. Nature of the data set: Effect on IL-1beta gene expression in human RPTEC cells at 26 uM incubated for 24 hrs by qPCR analysis. It is filed as functional, cell-based. On the technique in general: In qPCR the cycle at which signal appears reflects the starting amount.
Data set [4] relates to RPTEC. In words: Effect on IL-6 gene expression in human RPTEC cells at 26 uM incubated for 24 hrs by qPCR analysis. The format is functional, cell-based.
Data set [5] deals with RPTEC. Nature of the data set: Antiinflammatory activity in LPS-induced human RPTEC cells assessed as downregulation of TNFalpha gene expression at 26 uM incubated for 24 hrs by qPCR analysis relative to control. It is filed as functional.
In data set [6] the test system is RPTEC. In words: Antiinflammatory activity in LPS-induced human RPTEC cells assessed as decrease in IL-1beta gene expression at 26 uM incubated for 24 hrs by qPCR analysis relative to control. The format is functional. Also noted: scale not given: the % may be the effect or the level left.
The test system of data set [7] is RPTEC. Nature of the data set: Antiinflammatory activity in LPS-induced human RPTEC cells assessed as decrease in IL6 gene expression at 26 uM incubated for 24 hrs by qPCR analysis relative to control. It is filed as functional. Also on record: scale not given: the % may be the effect or the level left.
For data set [8], the system named is RPTEC. In words: Effect on iNOS gene expression in human RPTEC cells at 26 uM incubated for 24 hrs by qPCR analysis. The format is functional, cell-based.
Data set [9] has as its system RPTEC. In words: Effect on total NO level in human RPTEC cells at 26 uM incubated for 24 hrs by microplate reader analysis. It is filed as functional, cell-based.
Data set [10] deals with RPTEC. Nature of the data set: Effect on nitrite level in human RPTEC cells at 26 uM incubated for 24 hrs by microplate reader analysis. It is filed as functional, cell-based.
In data set [11] the test system is RPTEC. Nature of the data set: Effect on nitrate level in human RPTEC cells at 26 uM incubated for 24 hrs by microplate reader analysis. It is filed as functional, cell-based.
The test system of data set [12] is RPTEC. Nature of the data set: Antiinflammatory activity against LPS-induced human RPTEC cells assessed as reduction in iNOS gene expression at 26 uM incubated for 24 hrs by qPCR analysis relative to control. The format is functional. Also noted: scale not given: the % may be the effect or the level left.
Data set [13] relates to RPTEC. Nature of the data set: Antiinflammatory activity against LPS-induced human RPTEC cells assessed as reduction in nitrite level at 26 uM incubated for 24 hrs by microplate reader analysis relative to control. The format is functional. Also on record: scale not given: the % may be the effect or the level left.
Data set [14] concerns RPTEC. In words: Effect on nitrate level in LPS-induced human RPTEC cells at 26 uM incubated for 24 hrs by microplate reader analysis. It is filed as functional, cell-based.
Data set [15] relates to RPTEC. Nature of the data set: Antiinflammatory activity against LPS-induced human RPTEC cells assessed as reduction in total NO level at 26 uM incubated for 24 hrs by microplate reader analysis relative to control. The format is functional. Also noted: scale not given: the % may be the effect or the level left.
In data set [16] the test system is RPTEC. Nature of the data set: Effect on COX-2 gene expression in human RPTEC cells at 26 uM incubated for 24 hrs by qPCR analysis. The format is functional, cell-based.
Data set [17] deals with RPTEC. In words: Antiinflammatory activity against LPS-induced human RPTEC cells assessed as reduction in COX-2 gene expression at 26 uM incubated for 24 hrs by qPCR analysis relative to control. It is filed as functional. Also noted: scale not given: the % may be the effect or the level left.
Data set [18] deals with RPTEC. Nature of the data set: Upregulation of IL-1beta gene expression in human RPTEC cells at 26 uM incubated for 24 hrs by qPCR analysis. It is filed as functional, cell-based.
Data set [19] concerns RPTEC. Nature of the data set: Upregulation of IL-6 gene expression in human RPTEC cells at 26 uM incubated for 24 hrs by qPCR analysis. It is filed as functional, cell-based.
In data set [20] the test system is RPTEC. In words: Upregulation of COX-2 gene expression in human RPTEC cells at 26 uM incubated for 24 hrs by qPCR analysis. It is filed as functional, cell-based.
For a further data set, the system named is RAW264.7. Nature of the data set: Inhibition of NO production in LPS-induced mouse RAW264.7 cells incubated for 24 hrs by absorbance based assay. It is filed as functional, cell-based. Conditions: RAW264.7, 24 h.
Data set [21] is described as follows: Downregulation of TNF-alpha gene expression in human RPTEC cells at 28 uM incubated for 24 hrs by qPCR analysis relative to control. It is filed as functional.
Data set [22] relates to RPTEC. Nature of the data set: Antiinflammatory activity in LPS-induced human RPTEC cells assessed as downregulation of TNFalpha gene expression at 28 uM incubated for 24 hrs by qPCR analysis relative to control. The format is functional.
Data set [23] relates to RPTEC. In words: Antiinflammatory activity in LPS-induced human RPTEC cells assessed as decrease in IL-1beta gene expression at 28 uM incubated for 24 hrs by qPCR analysis relative to control. The format is functional. Also noted: scale not given: the % may be the effect or the level left.
The test system of data set [24] is RPTEC. Nature of the data set: Antiinflammatory activity in LPS-induced human RPTEC cells assessed as decrease in IL6 gene expression at 28 uM incubated for 24 hrs by qPCR analysis relative to control. Also noted: scale not given: the % may be the effect or the level left. It is filed as functional.
Data set [25] concerns RPTEC. Nature of the data set: Antiinflammatory activity against LPS-induced human RPTEC cells assessed as reduction in iNOS gene expression at 28 uM incubated for 24 hrs by qPCR analysis relative to control. The format is functional. Also noted: scale not given: the % may be the effect or the level left.
In data set [26] the test system is RPTEC. Nature of the data set: Antiinflammatory activity against LPS-induced human RPTEC cells assessed as reduction in nitrite level at 28 uM incubated for 24 hrs by microplate reader analysis relative to control. The format is functional. Also noted: scale not given: the % may be the effect or the level left.
Data set [27] deals with RPTEC. Nature of the data set: Effect on nitrate level in LPS-induced human RPTEC cells at 28 uM incubated for 24 hrs by microplate reader analysis. It is filed as functional, cell-based.
Data set [28] relates to RPTEC. In words: Effect on COX-2 gene expression in human RPTEC cells at 28 uM incubated for 24 hrs by qPCR analysis. It is filed as functional, cell-based.
Data set [29] has as its system RPTEC. Nature of the data set: Antiinflammatory activity against LPS-induced human RPTEC cells assessed as reduction in COX-2 gene expression at 28 uM incubated for 24 hrs by qPCR analysis relative to control. The format is functional. Also noted: scale not given: the % may be the effect or the level left.
The nature of data set [30]: Downregulation of TNF-alpha gene expression in human RPTEC cells at 26 uM incubated for 24 hrs by qPCR analysis relative to control. It is filed as functional.
Data set [31] in a line: Downregulation of IL-1beta gene expression in human RPTEC cells at 26 uM incubated for 24 hrs by qPCR analysis relative to control. It is filed as functional.
Data set [32] is described as follows: Downregulation of COX-2 gene expression in human RPTEC cells at 26 uM incubated for 24 hrs by qPCR analysis relative to control. The format is functional.

Take `CC1(C)Oc2ccc(CC3=C(c4ccc(O)cc4)C(=O)OC3=O)cc2C[C@@H]1O`: the Activity result with RPTEC [1] is reported as “Non-Toxic”; in the data set on RPTEC [2] it was “Non-Toxic”; in the data set on RPTEC [5], 57%; in the data set on RPTEC [6], 52%; in the data set on RPTEC [7], 48%; in the data set with RPTEC [12] it was 47%. Also, the Activity was 45% in the data set on RPTEC [13], approximately 33% in the data set with RPTEC [15] and 49% in the data set on RPTEC [17]. Also, the result in the data set on RPTEC [3], in the data set on RPTEC [4], in the data set with RPTEC [8], in the data set with RPTEC [9], with RPTEC [10] and with RPTEC [11] was inactive. The result with RPTEC [14] and in the data set with RPTEC [16] was inactive.

As to `CC1(C)Oc2ccc(CC3=C(c4ccc(O)cc4)C(=O)NC3=O)cc2CC1O` (racemic), the Activity entry is recorded as “Non-Toxic” with RPTEC [1]; “Non-Toxic” in the data set on RPTEC [2]; 44% with RPTEC [5]; 52% in the data set on RPTEC [6]; 44% with RPTEC [7]; 57% with RPTEC [12]. The Activity is 45% with RPTEC [13], approximately 37% with RPTEC [15] and 53% in the data set on RPTEC [17]. Besides, the result with RPTEC [18], in the data set on RPTEC [19] and in the data set with RPTEC [20] was Active. Moreover, the outcome in the data set on RPTEC [8], with RPTEC [9], in the data set on RPTEC [10], with RPTEC [11] and in the data set on RPTEC [14] was inactive.

Consider `COc1ccc2c(c1)c(CC(=O)O)c(C)n2C(=O)c1ccc(Cl)cc1` [INDOMETHACIN], for which the IC50 in the data set on RAW264.7 came to 37.5 µM. Further, the Activity in data set [21] is recorded as approximately 38%; in the data set with RPTEC [22] it was 64%; with RPTEC [23], 56%; with RPTEC [24], 57%; in the data set with RPTEC [25], 59%; in the data set with RPTEC [26] it was 45%. Besides, in the data set on RPTEC [29], the Activity was determined as 61%. For the same molecule, the result in the data set with RPTEC [27] and with RPTEC [28] was inactive.

Consider `CC1(C)Oc2ccc(CC3=C(c4ccc(O)cc4)C(=O)OC3=O)cc2CC1O` (stereo not given), for which the Activity result with RPTEC [1] is given as “Non-Toxic”; with RPTEC [2] it was “Non-Toxic”; in data set [30] it was approximately 38%; in data set [31] it was 24%; in the data set on RPTEC [5], 67%; in the data set on RPTEC [6], 61%. Further, the Activity in the data set with RPTEC [7] was 55%; in the data set on RPTEC [12], 67%; with RPTEC [13], 45%; in the data set on RPTEC [15] it was approximately 35%; in data set [32], approximately 20%; in the data set on RPTEC [17], 61%. Moreover, the outcome in the data set on RPTEC [4], in the data set with RPTEC [8], in the data set on RPTEC [9], in the data set with RPTEC [10], in the data set with RPTEC [11] and in the data set with RPTEC [14] was inactive.

`CC1(C)Oc2ccc(CC3=C(c4ccc(O)cc4)C(=O)NC3=O)cc2C[C@@H]1O`: the IC50 with RAW264.7 came out at 0.78 µM. In addition, the Activity entry with RPTEC [1] is given as “Non-Toxic”; in the data set with RPTEC [2] it was “Non-Toxic”; in the data set on RPTEC [5], 58%; in the data set with RPTEC [6], 52%; in the data set on RPTEC [7], 39%; in the data set with RPTEC [12] it was 52%. Besides, the values for the Activity in the data set with RPTEC [13], with RPTEC [15] and with RPTEC [17] were 24%, approximately 18% and 52%, respectively. The outcome in the data set on RPTEC [3], in the data set with RPTEC [4], in the data set with RPTEC [8], in the data set on RPTEC [9], in the data set on RPTEC [10] and with RPTEC [11] was inactive. In addition, the result in the data set on RPTEC [14] and in the data set with RPTEC [16] was inactive.
